Data as given in the METLIN SMRT retention time set (Domingo-Almenara et al. 2019).

Assay: gradient 5% acetonitrile 3 min, to 50% in 2 min, to 85% in 15 min, held 3 min, 100 µL/min
Settings: column: Zorbax Extend-C18 2.1 x 50 mm; eluents: water / acetonitrile, 0.1% formic acid
In short: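 Standards, all pure, were combined into mixtures of ~100 molecules and run at 100 μL/min on a Zorbax Extend-C18 column (2.1 × 50 mm, 1.8 μm) with water and acetonitrile, each containing 0.1% formic acid. A coupled quadrupole time-of-flight mass spectrometer operated in positive and negative ionization mode. Retention time values come from computationally picked adduct peaks, each inspected manually.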

Compound	RP-LC retention time
CCCNC(=O)C1CCN(c2ccc(SCC(=O)Nc3ccc(CC)cc3)nn2)CC1	694 s
CNC(=O)[C@H]1O[C@@H](n2cnc3c(NCc4cccc(I)c4)ncnc32)C(O)[C@H]1O (stereo partly drawn)	730 s
O=C(Nc1ccc(OC(F)(F)F)cc1)C(=O)Nc1cccc([N+](=O)[O-])c1	1030 s
CCc1nc2cc(N3CCCC(C(=O)NC4CC4)C3)cnc2nc1CC (stereo not drawn)	696 s
O=C(N[C@@H]1CN(Cc2ccc3c(c2)CCO3)C[C@H]1CO)C1CC1	632 s
CCOC(=O)c1cc(S(=O)(=O)N2CCCC2C(=O)NCCC2=CCCCC2)cn1C (stereo not drawn)	985 s
Cc1cc(Nc2ccc(C(=O)NC3CC3)cc2)n2nc(-c3cccnc3)nc2n1	612 s
Fc1ccc(-c2nc(-c3ccc(-n4ccnc4)nc3)no2)cc1	732 s
Cc1ccc(S(=O)(=O)N2CCC3(CC2)CCC(O)(CN2CCCC2)CC3)c(C)c1	602 s
CC(C)c1cc(C(=O)NCc2ccco2)nc2cc(-c3ccccn3)nn12	629 s
O=S(=O)(c1cc(-c2nnc(C3CC3)o2)co1)N1CCc2ccccc2C1	946 s
CCOC(=O)C1CCN(C(=O)C2CCN(c3nccc(C)n3)CC2)CC1	662 s
CCN(C(=O)Cc1ccccc1)c1nc(-c2ccc(C)cc2)cs1	1320 s
O=S(=O)(Nc1ccc(Cl)cn1)c1cc(-c2noc(C3CCCC3)n2)cs1	1070 s
O=C(NCCc1ccccc1)N(C1CCOCC1)C1CCN(Cc2cccnc2)CC1	604 s
CCc1ccccc1N(C)C(=O)C1CCCN(c2ncnc3c2nc2n3CCCCC2)C1 (stereo not drawn)	909 s
CC(=O)N1CCC([C@@H]2CN(C(=O)C3(C)CCCCC3)C[C@H]2CO)CC1	631 s
Cn1cc(S(=O)(=O)N2CCC(C(=O)NC3CC3)CC2)cc1C(=O)N1CCCC1	641 s
Cc1c(CN2CCC(N(C(=O)NCCc3ccccc3)C3CCOCC3)CC2)cnn1C	627 s

Compound	RP-LC retention time
CCOC(=O)C1CCN(Cc2nc3nc(C)cc(N4CCOCC4)n3n2)CC1	576 s
O=C(NCc1ccco1)c1nnn(-c2ccc(F)cc2)c1-c1ccncc1	726 s
O=C(NCc1cccnc1)C1CCCN(c2ccc(Sc3ccc(Br)cc3)nn2)C1 (stereo not drawn)	653 s
O=C(NC(CO)C(O)c1ccc([N+](=O)[O-])cc1)C(Cl)Cl (stereo not drawn)	735 s
O=C(c1ccoc1)N1[C@H]2CC[C@@H]1c1cnc(-c3ccc(F)cc3)nc1C2	882 s
COCCCNC(=O)C1CCN(c2cncnc2N2CCOCC2)CC1	550 s
O=C(c1ccc(F)c(F)c1)N1CCN(c2nc(CN3CCOCC3)cs2)CC1	617 s
O=C(c1ccc2nc(N3CCOCC3)sc2c1)N1CCN(c2ccccn2)CC1	563 s
COCCNC(=O)c1nc2ccccn2c1-c1ccc(Cl)cc1	731 s
Fc1ccc(-c2ccc(CNCc3cccs3)o2)cc1	706 s
O=C1CN(Cc2ccc3c(c2)OCO3)C2CS(=O)(=O)CC2N1c1cccc(Cl)c1 (stereo not drawn)	770 s
CCCCNC(=O)c1nccnc1NC(=O)c1ccccc1	903 s
O=C(O)c1cnc(N2CCSCC2)nc1-c1ccccc1	866 s
O=S1(=O)C[C@H](N2CCN(c3ccccn3)CC2)[C@@H](S(=O)(=O)c2ccc(Cl)cc2)C1	643 s
O=C(NCc1ccccn1)c1cn(-c2cc(N3CCOCC3)ncn2)cn1	581 s
O=C(Cn1ccnc1-c1ccnc(N2CCSCC2)c1)NC1CCCC1	619 s
O=C(Cc1c[nH]c2ccccc12)NCCc1c[nH]c2ccc(Cl)cc12	857 s
CC1=C(c2ccc(C)cc2)S(=O)(=O)N=C1N1CCCN(C(=O)NC2CCCC2)CC1	857 s

Other lines, results leading:

RP-LC retention time	Compound
1010 s	Cc1ccc(S(=O)(=O)N2CCCC2)cc1-c1nnc(-c2ccccc2)o1
981 s	CC1CCN(c2nc(=O)n(CC(=O)Nc3ccc(C(C)C)cc3)c3ccccc23)CC1
720 s	COCCCNC(=O)N1CCCC(C)(C(=O)NCc2ccccc2C)C1 (stereo not drawn)
788 s	COc1ccc(S(=O)(=O)NC2CCN(C(=O)CCc3c[nH]c4ccccc34)CC2)cc1
877 s	Cc1ccccc1Cn1cc(C(=O)Nc2cccc(Br)c2)ccc1=O
659 s	CCN1C(=O)c2cc(C(=O)NCc3ccccc3F)nn2CC1(C)C(=O)NC1CCCC1 (stereo not drawn)
898 s	O=C(Nc1ccc2c(c1)OCCO2)N1CCc2nc(-c3ccc(F)cc3)ncc2C1
877 s	CCOc1ccc(CNC(=O)C2CCCN(C(=O)c3[nH]c(C)c(C(=O)OC(C)C)c3C)C2)cc1 (stereo not drawn)
632 s	CN1C(=O)c2cc(C(=O)N3CCOCC3)nn2CC1(C)C(=O)NCc1ccccc1 (stereo not drawn)
627 s	CCn1nc(C)c(CCNC(=O)Cn2c3ccccc3c3cnn(C)c(=O)c32)c1C
734 s	Cc1nn(-c2cc(N3CCOCC3)ncn2)c(C)c1CCC(=O)NCCc1ccco1
657 s	O=C1CCc2cc(NC(=O)c3ccc(F)c(F)c3)ccc2N1
640 s	COc1ccc(OC)c(NC(=O)CN2CCc3[nH]c4c(C)cc(F)cc4c(=O)c3C2)c1
745 s	Cc1ccc(CNC(=O)C2CCN(S(=O)(=O)c3cn(C(C)C)cn3)CC2)cc1
1110 s	COc1ccc(NS(=O)(=O)c2c(C)sc(C)c2-c2cc(C(F)(F)F)on2)cc1
793 s	Cc1nc(SCC(=O)Nc2nc3ccccc3s2)c2c(=O)n(C)c(=O)n(C)c2n1
986 s	CCOC(=O)c1nnc2c(-c3ccc(F)cc3)c(C)nn2c1C
919 s	CCn1c(=O)c(C)nc2cc(-c3noc(-c4cc(OC)c(OC)c(OC)c4)n3)ccc21
982 s	C=CCN1C(=O)COc2ccc(-c3csc(NC(=O)c4ccccc4)n3)cc21
1110 s	CCCn1cc(C(=O)NCCCOCC)c(S(=O)(=O)N2CCN(c3cccc(Cl)c3)CC2)n1
1010 s	CSc1ccc(CNC(=O)C2CCCN(c3ccc(=O)n(-c4ccc(C)c(Cl)c4)n3)C2)cc1 (stereo not drawn)
819 s	CCc1nc2cc(-c3noc(CNC(=O)Cc4ccccc4)n3)ccc2o1
647 s	Cc1cccc(NC(=O)N2CCN(c3cnn4c(C5CC5)nnc4c3)CC2)c1
628 s	CC1(C)C(=O)NCCN1C(=O)C1COc2ccccc2O1 (stereo not drawn)
630 s	CC(=O)c1ccc(NC(=O)c2cn(C)nc2C)cc1
888 s	CCc1ccc(OCC(=O)Nc2nnc(C3CC(=O)N(c4ccc(Cl)cc4)C3)o2)cc1 (stereo not drawn)

RP-LC retention time	Compound
989 s	Cc1ccc(C)c(NC(=O)CSc2nccc(N3CCN(c4cc(C)ccc4C)CC3)n2)c1
568 s	COc1ccc(N2CCCn3c2nc2c3c(=O)n(C)c(=O)n2C)cc1
1060 s	Cc1oc(-c2cccs2)nc1COc1cc(C)c2c(C)nn(C)c2n1
1370 s	Cc1ccc(C)c(-c2coc(-c3ccc(NC(=O)C4CCCCC4)cc3)n2)c1
1110 s	CC(C)Oc1ccc(CNC(=O)c2sc3ncccc3c2-n2cccc2)cc1
688 s	COc1cccc(C2(C(N)=O)CC2)c1
774 s	CCN1CCC(N(Cc2ccc3c(c2)OCO3)C(=O)Nc2cc(Cl)ccc2C(=O)OC)CC1
738 s	COc1ccc(-c2cn3ccn(-c4ccc(F)cc4)c(=O)c3n2)cc1OC
700 s	CCC(=O)Nc1ccc2c(c1)CN(C(=O)c1c(F)cccc1F)C(C(=O)N1CCCC1)C2 (stereo not drawn)
870 s	Cc1ccc(NC(=O)Nc2ccc3nnc(C4CCC4)n3c2)cc1Cl
678 s	Cc1ccc(F)c(NS(=O)(=O)c2cc(-c3[nH]ncc3C(=O)N3CCOCC3)oc2C)c1
760 s	Cc1nnc(N2CCCC(C(=O)NCc3ccc(Cl)cc3)C2)c2nn(-c3ccccc3)c(C)c12 (stereo not drawn)
656 s	CCc1ccc2[nH]c3c(c(=O)c2c1)CN(CC(=O)NCc1ccc(Cl)cc1)CC3
861 s	COc1ccccc1OCCC1CCN(S(=O)(=O)c2c(C)nn(C)c2C)C1 (stereo not drawn)
662 s	CC(=O)NCc1csc(C2CCN(C(=O)COc3ccc(F)cc3)CC2)n1
730 s	CCCNC(=O)c1nc2ccccn2c1-c1ccc(F)cc1
695 s	COc1cccc(NC(=O)NCC2CC(=O)N(Cc3ccc(F)cc3)C2)c1OC (stereo not drawn)
1070 s	COc1ccc(-c2ncc3c(n2)CCN(S(=O)(=O)c2cccc(C)c2)C3)cc1
616 s	COc1ccc(NC(=O)C2CCN(c3cc(N4CCCC4)ncn3)CC2)cc1OC
654 s	CN(C)C(=O)c1n[nH]c2c1CN(C(=O)c1cccc(Br)c1)CC2
730 s	COc1ccc(C(=O)N2CCC3(CC2)NC(=O)c2cc(F)ccc2N3C)cc1
824 s	CC(=O)N1CCCc2cc(S(=O)(=O)CCC(=O)Nc3ccc(Br)cc3F)ccc21
608 s	Cc1cc(=O)n(CC(=O)N2CCc3ccccc32)c(N)n1
892 s	Cc1ccc(CNC(=O)CCc2nc3c(C)cccc3c(=O)n2C)cc1C
588 s	COc1ccc(C(=O)CN(C(=O)N2CCN(C)CC2)S(=O)(=O)c2ccc(C)cc2)cc1
